Tests used:
[1] = system: bedstraw; test: Test B pre/postemergence bedstraw; type: in vivo, Galium aparine
Method in brief: (§1)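 Herbicidal effect was estimated by eye on a ten-point control scale after plants spent twelve to sixteen days in a greenhouse following soil or foliar treatment. Foliar sprays targeted plants at one to four leaves; all doses were formulated in a non-phytotoxic solvent with surfactant.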

[2] = system: pigweed; test: Test B pre/postemergence pigweed; type: in vivo, Amaranthus retroflexus
Method in brief: as §1

[3] = system: corn; test: Test B pre/postemergence corn; type: in vivo, Zea mays
Method in brief: as §1

[4] = system: soybean; test: Test B pre/postemergence soybean; type: in vivo, Glycine max
Method in brief: as §1

[5] = system: wheat; test: Test B pre/postemergence wheat; type: in vivo, Triticum aestivum
Method in brief: as §1

[6] = system: wild oat; test: Test B pre/postemergence wild oat; type: in vivo, Avena fatua
Method in brief: as §1

[7] = system: purple nutsedge; test: Test B pre/postemergence purple nutsedge; type: in vivo, Cyperus rotundus
Method in brief: as §1

[8] = system: velvetleaf; test: Test B pre/postemergence velvetleaf; type: in vivo, Abutilon theophrasti
Method in brief: as §1

[9] = system: morningglory; test: Test B pre/postemergence morningglory; type: in vivo, Ipomoea hederacea
Method in brief: as §1

[10] = system: cocklebur; test: Test B pre/postemergence cocklebur; type: in vivo, Xanthium strumarium
Method in brief: as §1

[11] = system: rape; test: Test B pre/postemergence rape; type: in vivo, Brassica napus
Method in brief: as §1

[12] = system: crabgrass; test: Test B pre/postemergence crabgrass; type: in vivo, Digitaria sanguinalis
Method in brief: as §1

[13] = system: sugar beet; test: Test B pre/postemergence sugar beet; type: in vivo, Beta vulgaris
Method in brief: as §1

[14] = system: surinam grass; test: Test B pre/postemergence surinam grass; type: in vivo, Brachiaria decumbens; conditions: Postemergence
Method in brief: as §1

[15] = system: blackgrass; test: Test B pre/postemergence blackgrass; type: in vivo, Alopecurus myosuroides
Method in brief: as §1

[16] = system: giant foxtail; test: Test B pre/postemergence giant foxtail; type: in vivo, Setaria faberii
Method in brief: as §1

[17] = Postemergence, Rate 125 g/ha, scale of 0 to 10 where 0 is no effect and 10 is complete control
[18] = Postemergence, Rate 500 g/ha, scale 0 (no effect) to 10 (complete control)
[19] = Postemergence, Rate 1000 g/ha, scale 0 to 10 (0 no effect, 10 complete control)
[20] = Preemergence, Rate 250 g/ha, scale 0 (no effect) to 10 (complete control)
[21] = Rate 125 g/ha, Preemergence, scale 0 to 10 (0 no effect, 10 complete control)
[22] = Rate 250 g/ha, Postemergence, scale 0 to 10, 0 is no effect, 10 is complete control
[23] = Rate 500 g/ha, Preemergence, scale 0 to 10 (0 no effect, 10 complete control)
[24] = Rate 1000 g/ha, Preemergence, scale 0 to 10 (0 no effect, 10 complete control)

COC(=O)N(C)CCn1c(=O)on(C(=O)N(c2ccccc2)C(C)C)c1=O [Compound 775]
Bedstraw plant response rating [1, 17]: 0
Bedstraw plant response rating [1, 18]: 7
Bedstraw plant response rating [1, 19]: 7
Bedstraw plant response rating [1, 20]: 0
Bedstraw plant response rating [1, 21]: 0
Bedstraw plant response rating [1, 22]: 2
Bedstraw plant response rating [1, 23]: 2
Plant response rating, Bedstraw [1, 24]: 2
Redroot pigweed plant response rating [2, 17]: 3
Redroot pigweed plant response rating [2, 18]: 3
Redroot pigweed plant response rating [2, 19]: 6
Redroot pigweed plant response rating [2, 21]: 0
Redroot pigweed plant response rating [2, 22]: 3
Redroot pigweed plant response rating [2, 23]: 9
Plant response rating, Redroot pigweed [2, 24]: 10
Corn plant response rating [3, 17]: 0
Corn plant response rating [3, 18]: 0
Corn plant response rating [3, 19]: 0
Corn plant response rating [3, 20]: 0
Corn plant response rating [3, 21]: 0
Corn plant response rating [3, 22]: 0
Corn plant response rating [3, 23]: 3
Plant response rating, Corn [3, 24]: 4
Soybean plant response rating [4, 18]: 6
Soybean plant response rating [4, 21]: 0
Soybean plant response rating [4, 22]: 6
Soybean plant response rating [4, 23]: 1
Plant response rating, Soybean [4, 24]: 2
Wheat plant response rating [5, 18]: 0
Wheat plant response rating [5, 21]: 0
Wheat plant response rating [5, 22]: 0
Wheat plant response rating [5, 23]: 8
Plant response rating, Wheat [5, 24]: 9
Wild oats plant response rating [6, 18]: 0
Wild oats plant response rating [6, 21]: 2
Wild oats plant response rating [6, 22]: 0
Wild oats plant response rating [6, 23]: 8
Plant response rating, Wild oats [6, 24]: 9
Nutsedge plant response rating [7, 17]: 0
Nutsedge plant response rating [7, 19]: 0
Nutsedge plant response rating [7, 21]: 0
Nutsedge plant response rating [7, 22]: 0
Nutsedge plant response rating [7, 23]: 0
Plant response rating, Nutsedge [7, 24]: 9
Velvetleaf plant response rating [8, 18]: 2
Velvetleaf plant response rating [8, 21]: 0
Velvetleaf plant response rating [8, 22]: 2
Velvetleaf plant response rating [8, 23]: 0
Plant response rating, Velvetleaf [8, 24]: 4
Morningglory plant response rating [9, 17]: 5
Morningglory plant response rating [9, 18]: 6
Morningglory plant response rating [9, 19]: 8
Morningglory plant response rating [9, 21]: 0
Morningglory plant response rating [9, 22]: 6
Morningglory plant response rating [9, 23]: 2
Plant response rating, Morningglory [9, 24]: 5
Cocklebur plant response rating [10, 17]: 0
Cocklebur plant response rating [10, 18]: 0
Cocklebur plant response rating [10, 19]: 0
Cocklebur plant response rating [10, 20]: 0
Cocklebur plant response rating [10, 21]: 0
Cocklebur plant response rating [10, 22]: 0
Cocklebur plant response rating [10, 23]: 0
Plant response rating, Cocklebur [10, 24]: 0
Rape plant response rating [11, 17]: 0
Rape plant response rating [11, 18]: 0
Rape plant response rating [11, 19]: 0
Rape plant response rating [11, 21]: 0
Rape plant response rating [11, 22]: 0
Rape plant response rating [11, 23]: 0
Plant response rating, Rape [11, 24]: 7
Crabgrass plant response rating [12, 17]: 3
Crabgrass plant response rating [12, 18]: 9
Crabgrass plant response rating [12, 19]: 9
Crabgrass plant response rating [12, 20]: 9
Crabgrass plant response rating [12, 21]: 9
Crabgrass plant response rating [12, 22]: 7
Crabgrass plant response rating [12, 23]: 10
Plant response rating, Crabgrass [12, 24]: 10
Sugarbeets plant response rating [13, 18]: 0
Sugarbeets plant response rating [13, 21]: 0
Sugarbeets plant response rating [13, 22]: 0
Sugarbeets plant response rating [13, 23]: 3
Plant response rating, Sugarbeets [13, 24]: 3
B. signalgrass plant response rating ([14]; Rate 125 g/ha, scale of 0 to 10 where 0 is no effect and 10 is complete control): 2
B. signalgrass plant response rating ([14]; Rate 1000 g/ha, scale 0 to 10 (0 no effect, 10 complete control)): 9
B. signalgrass plant response rating ([14]; Rate 250 g/ha, scale 0 to 10, 0 is no effect, 10 is complete control): 3
B. signalgrass plant response rating ([14]; Rate 500 g/ha, scale 0 to 10, 0 is no effect, 10 is complete control): 3
Blackgrass plant response rating [15, 17]: 0
Blackgrass plant response rating [15, 18]: 7
Blackgrass plant response rating [15, 19]: 4
Blackgrass plant response rating [15, 20]: 9
Blackgrass plant response rating [15, 21]: 5
Blackgrass plant response rating [15, 22]: 4
Blackgrass plant response rating [15, 23]: 10
Plant response rating, Blackgrass [15, 24]: 10
Giant foxtail plant response rating [16, 17]: 7
Giant foxtail plant response rating [16, 18]: 9
Giant foxtail plant response rating [16, 19]: 9
Giant foxtail plant response rating [16, 20]: 10
Giant foxtail plant response rating [16, 21]: 9
Giant foxtail plant response rating [16, 22]: 7
Giant foxtail plant response rating [16, 23]: 10
Plant response rating, Giant foxtail [16, 24]: 10

Source: patent publication US6737383B1, “Herbicidal oxadiazolidines” (priority 1999, dated 2004)
